Target: T1, recombinant human GPR52 (Homo sapiens, UniProt Q9Y2T5)
T1 construct: expressed in transfected cells
Test: GPR52 activity: TR-FRET cAMP assay (LANCE Ultra cAMP Kit)
Assay type: cell-based
Settings: Flp-In-CHO cells stably expressing recombinant human GPR52; cAMP production, normalized to positive control
Description: TR-FRET cAMP assays were performed using commercially available assay kits (LANCE™ Ultra cAMP Kit). Controls and compounds were solubilized in DMSO using ½ log dilution to generate duplicate 10-point dose response curves in 384-well polypropylene compound plates. Sixty nanoliters of the diluted compounds were transferred into 384-well NBS assay plates and further diluted to 1× with the addition of 2000 cells per well. Flp-In™-CHO cells that stably express recombinant human GPR52.
Cells were harvested with cell stripper and resuspended in Stimulation Buffer (5 mM HEPES, 0.1% bovine serum albumin (BSA), 0.5 mM IBMX, pH 7.4). After thirty minutes incubation at room temperature, detection reagents were added to each well. Plates were then incubated for 30 minutes at room temperature. The LANCE™ Ultra cAMP assay uses time-resolved fluorescence resonance energy transfer (TR-FRET) to detect cAMP production; this signal was quantified using a Pherastar multi-mode plate reader.
Dose-response curves were generated from the fluorescence counts normalized to the positive control. E EC50 values were obtained using a nonlinear regression curve-fitting program.

T1 sequence (Q9Y2T5 whole entry): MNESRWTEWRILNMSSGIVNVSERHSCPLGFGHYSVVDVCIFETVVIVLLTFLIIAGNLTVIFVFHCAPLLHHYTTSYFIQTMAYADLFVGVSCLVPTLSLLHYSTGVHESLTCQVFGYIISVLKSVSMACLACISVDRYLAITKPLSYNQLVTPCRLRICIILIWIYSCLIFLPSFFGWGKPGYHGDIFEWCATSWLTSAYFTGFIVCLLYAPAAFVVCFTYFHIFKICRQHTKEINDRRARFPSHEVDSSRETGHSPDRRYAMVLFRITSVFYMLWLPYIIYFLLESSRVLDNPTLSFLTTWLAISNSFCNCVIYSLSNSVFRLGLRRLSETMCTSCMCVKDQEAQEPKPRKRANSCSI

| Compound | EC50 [nM] |
| --- | --- |
| N#Cc1cc(Cc2ccnc(-c3ccc4c(c3)CCNC4=O)c2)ccc1F [Compound 42, 2-fluoro-5-{[2-(1-oxo-1,2,3,4-tetrahydroisoquinolin-6-yl)pyridin-4-yl]methyl}benzonitrile] | 101 to 1000 |
| Cc1cc(-c2cccc(Cc3cccc(C(F)(F)F)c3)n2)ccc1C(N)=O [Compound 12, 2-methyl-4-(6-{[3-(trifluoromethyl)phenyl]methyl}pyridin-2-yl)benzamide] | 25 to 100 |
